# Key:
# Herpes simplex virus = conditions: Masakatsu et al. 1977; cited from earlier work
# Vaccinia virus = conditions: Masakatsu et al. 1977, cited from earlier work
# [1] = tested on: Triticum aestivum cv. Hereward detached leaf segments; assay: Senescence bioassay on detached wheat leaf segments (chlorophyll retention); assay type: in vivo; conditions: 96 h incubation in the dark at 25° C.; tested 10^−8 M to 10^−4 M
# Protocol: Seeds of winter wheat, Triticum aestivum cv. Hereward, were washed under running water for 24 hours and then sown on vermiculite soaked with Knop's solution. They were placed in the growth chamber at 25° C. with a 16/8 h light period at 50 μmol·m^−2·s^−1. After 7 days, the first leaf was fully developed and the second leaf had started to grow. A tip section of the first leaf, approximately 35 mm long, was removed from 5 seedlings and trimmed slightly to a combined weight of 100 mg. The basal ends of the five leaf tips were placed in the wells of a microtiter polystyrene plate containing 150 μL of the tested derivative solution each. The entire plate was inserted into a plastic box lined with paper tissues soaked in distilled water to prevent leaf sections from drying out. After 96 h incubation in the dark at 25° C., the leaves were removed and chlorophyll extracted by heating at 80° C. for 10 min in 5 mL of 80% ethanol (v/v). The sample volume was then restored to 5 mL by the addition of 80% ethanol (v/v). The absorbance of the extract was recorded at 665 nm. In addition, chlorophyll extracts from fresh leaves and leaf tips incubated in deionised water were measured. The results are means of five replicates and the entire test was repeated twice. […] The compounds to be tested were dissolved in dimethylsulfoxide (DMSO) and the solution brought up to 10^−3M with distilled water. […] The activity obtained for 10^−4 M of BAP was postulated as 100%.
# [2] = tested on: Arabidopsis wild-type plants (Col-0) detached leaves, gene transcription; assay: Differential gene expression study (RNA sequencing) in detached senescent leaves; assay type: in vivo; conditions: 10 μM
# Protocol: For isolation of total RNA, Arabidopsis wild-type plants (Col-0) were used, which were either treated with 3MeOBAPA or left untreated. Wild-type plants were grown in soil for 30 days, and then leaves of similar size and chlorophyll content were cut and immediately used for the treatment. At least 20 detached leaves were submerged in 1×MS medium supplemented with 10 μM 3MeOBAPA. Control samples were mock treated with DMSO only. After incubation for 6 h or 48 h in the dark, detached leaves were frozen in liquid nitrogen and used for RNA isolation; 150 mg of liquid nitrogen-ground material was used per isolation. cDNA sequencing libraries were prepared with the Illumina TruSeq Stranded mRNA LT Sample Prep Kit (Illumina, San Diego, Calif.) according to standard Illumina's protocols and sequenced on HiSeq 2500 apparatus (50 bp single-end reads).
# To gain insight into the molecular mechanism of 3MeOBAPA action in Arabidopsis we decided to analyze the gene expression patterns via comparison of mock (DMSO)-treated plants with those obtained after i) short time treatment with 3MeOBAPA (6 h) and ii) long time treatment (48 h). This comparison leads to identification of group of genes with similar kinetic of expression and helps to understand possible mechanism of regulation. For data analysis, we performed ab initio method where sequencing reads were mapped to the reference genome.
# [3] = tested on: Harpagophytum procumbens nodal explants; assay: Micropropagation growth response with BAP, Harpagophytum procumbens; conditions: after 35 days in vitro, N = 12
# [4] = tested on: Gymnosporia buxifolia shoot-tip explants; assay: Shoot-tip necrosis in in vitro cultures of Gymnosporia buxifolia; conditions: after 4 weeks of culture
# [5] = tested on: Amelanchier alnifolia nodal explants; assay: Micropropagation growth response with BAP, Amelanchier alnifolia; conditions: after 35 days in vitro, N = 9
# [6] = tested on: Dais cotinifolia shoot-tip explants; assay: Shoot multiplication and shoot-tip necrosis in shoot cultures of Dais cotinifolia; assay type: in vivo; conditions: after 8 weeks of culture
# Protocol: Explants were washed thoroughly with 0.1% (v/v) of Tween® 20 for 2 min, and decontaminated with 70% ethanol for 15 sec followed by 0.2% aqueous HgCl2 for 10 min. The explants were rinsed five times with sterile distilled water. […] Each value was presented as the mean±standard error, with three replicates; each replicate consisting of 15 explants per treatment.
smiles,measurement,setting,value
"Cc1cccc(CNc2ncnc3c2ncn3C2OC(CO)C(O)C2O)c1C (centres unmarked) [2,3-dimethylbenzyl]",activity in killing Herpes simplex virus,Herpes simplex virus,No effect
same,activity in killing Vaccinia virus,Vaccinia virus,No effect
"Cc1ccc(CNc2ncnc3c2ncn3C2OC(CO)C(O)C2O)c(C)c1 (centres unmarked) [2,4-dimethylbenzyl]","activity against Vaccinia virus, strain IHD",Vaccinia virus,low activity
"Cc1ccc(C)c(CNc2ncnc3c2ncn3C2OC(CO)C(O)C2O)c1 (centres unmarked) [2,5-dimethylbenzyl]","activity against Vaccinia virus, strain IHD",Vaccinia virus,low activity
"Cc1cccc(C)c1CNc1ncnc2c1ncn2[C@@H]1O[C@H](CO)[C@@H](O)[C@@H]1O [2,6-dimethylbenzyl]",activity in killing Herpes simplex virus,Herpes simplex virus,No effect
same,activity in killing Vaccinia virus,Vaccinia virus,No effect
Cc1ccccc1CNc1ncnc2c1ncn2[C@@H]1O[C@H](CO)[C@@H](O)[C@@H]1O [2-methylbenzyl],activity in killing Herpes simplex virus,Herpes simplex virus,No effect
same,activity in killing Vaccinia virus,Vaccinia virus,No effect
"Cc1ccc(CNc2ncnc3c2ncn3[C@@H]2O[C@H](CO)[C@@H](O)[C@@H]2O)cc1C [3,4-dimethylbenzyl]",activity in killing Herpes simplex virus,Herpes simplex virus,No effect
same,activity in killing Vaccinia virus,Vaccinia virus,No effect
COc1cccc(CNc2ncnc3c2ncn3[C@@H]2O[C@H](CO)[C@@H](O)[C@@H]2O)c1 [6-(3-methoxybenzylamino)-9-β-D-arabinofuranosylpurine],maximum effective concentration,[1],10^−4 mol · l^−1
same,logFC AT1G10585 Basic helix-loop-helix (bHLH) DNA-binding superfamily protein,[2]; 6 h,0.38
same,logFC AT1G15540 2-oxoglutarate and Fe(II)-dependent oxygenase superfamily protein,[2]; 6 h,0.57
same,logFC AT1G19670 Chlorophyllase-1 (CLH1),[2]; 6 h,0.63
same,logFC AT1G59860 17.6 kDa class I heat shock protein 1 (HSP17.6A),[2]; 6 h,0.48
same,logFC AT1G76640 Calcium-binding EF-hand family protein (CML39),[2]; 6 h,0.78
same,logFC AT2G02010 Glutamate decarboxylase 4 (GAD4),[2]; 6 h,0.55
same,logFC AT2G18150 Peroxidase 15 (PER15),[2]; 6 h,0.68
same,logFC AT2G21900 WRKY transcription factor 59 (WRKY59),[2]; 6 h,0.54
same,logFC AT2G26695 Ran BP2/NZF zinc finger-like superfamily protein,[2]; 6 h,0.50
same,logFC AT2G28210 Alpha carbonic anhydrase 2 (ATACA2),[2]; 6 h,0.85
same,logFC AT2G37430 Zinc finger protein ZAT11,[2]; 6 h,0.42
same,logFC AT2G39030 L-ornithine N5-acetyltransferase (NATA1),[2]; 6 h,0.56
same,logFC AT2G47040 Pectin methylesterase Vanguard1 (VGD1),[2]; 6 h,2.80
same,logFC AT3G05610 Pectinesterase/pectinesterase inhibitor 21 (PME21),[2]; 6 h,1.80
same,logFC AT3G09340 Transmembrane amino acid transporter family protein,[2]; 6 h,0.55
same,logFC AT3G11340 UDP-Glycosyltransferase superfamily protein,[2]; 6 h,0.51
same,logFC AT3G13400 SKU5 similar 13 (SKS13),[2]; 6 h,0.82
same,logFC AT3G28153 Transposable element gene,[2]; 6 h,0.92
same,logFC AT3G28155 ARM repeat superfamily protein,[2]; 6 h,0.59
same,logFC AT3G44830 Putative phospholipid:diacylglycerol acyltransferase 2 (PDAT2),[2]; 6 h,0.38
same,logFC AT4G01390 TRAF-like family protein,[2]; 6 h,0.79
same,logFC AT4G21830 Peptide methionine sulfoxide reductase B7 (MSRB7),[2]; 6 h,0.55
same,"logFC AT4G22030 F-box domain, cyclin-like, F-box domain, Skp2-like protein",[2]; 6 h,0.41
same,logFC AT4G22620 SAUR-like auxin-responsive family protein,[2]; 6 h,0.46
same,logFC AT4G24350 Phosphorylase superfamily protein,[2]; 6 h,0.64
same,logFC AT4G26010 Peroxidase 44 (PER44),[2]; 6 h,0.53
same,logFC AT4G31950 Cytochrome P450 82C3 (CYP82C3),[2]; 6 h,0.37
same,logFC AT4G37780 Myb domain protein 87 (MYB87),[2]; 6 h,0.41
same,logFC AT4G39320 Microtubule-associated protein-related,[2]; 6 h,0.45
same,logFC AT5G03610 GDSL esterase/lipase,[2]; 6 h,0.42
same,logFC AT5G52670 Copper transport family protein,[2]; 6 h,0.57
same,logFC AT5G62720 Integral membrane HPP family protein,[2]; 6 h,0.44
same,logFC AT5G63270 RPM1-interacting protein 4 (RIN4) family protein,[2]; 6 h,0.56
same,logFC AT2G26695 Ran BP2/NZF zinc finger-like superfamily protein,[2]; 48 h,5.90
same,logFC AT3G11340 UDP-Glycosyltransferase superfamily protein,[2]; 48 h,6.60
same,logFC AT3G28153 Transposable element gene,[2]; 48 h,5.70
same,number of downregulated genes (P≤0.05),[2]; long time treatment (48 h) vs mock (DMSO),7 095 genes
OC[C@H]1O[C@@H](n2cnc3c(NCc4ccccc4)ncnc32)[C@@H](O)[C@@H]1O [6-benzylamino-9-β-D-arabinofuranosylpurine],activity in killing Herpes simplex virus,Herpes simplex virus,No effect
same,activity in killing Vaccinia virus,Vaccinia virus,No effect
"Cc1cccc(CNc2ncnc3c2ncn3[C@@H]2O[C@H](CO)[C@@H](O)[C@@H]2O)c1 [Example 3CH3BAPA, 6-(3-methylbenzylamino)-9-β-D-arabinofuranosylpurine]",Fresh weight (g) mean SE,[3]; 5 μM compound with 10 μM BAP,0.8607 ± 0.1884 g
same,Shoot length (mm) mean SE,[3]; 5 μM compound with 10 μM BAP,28.6 ± 4.397 mm
same,Shoot no. mean SE,[3]; 5 μM compound with 10 μM BAP,2.8 ± 0.573
same,Fresh weight (g) mean SE,[3]; 10 μM compound with 10 μM BAP,1.0523 ± 0.2439 g
same,Shoot length (mm) mean SE,[3]; 10 μM compound with 10 μM BAP,45.8 ± 7.094 mm
same,Shoot no. mean SE,[3]; 10 μM compound with 10 μM BAP,2.6 ± 0.340
same,Fresh weight (g) mean SE,[3]; 20 μM compound with 10 μM BAP,0.8456 ± 0.1339 g
same,Shoot length (mm) mean SE,[3]; 20 μM compound with 10 μM BAP,27 ± 3.531 mm
same,Shoot no. mean SE,[3]; 20 μM compound with 10 μM BAP,2.3 ± 0.423
same,Fresh weight (g) mean SE,[3]; 30 μM compound with 10 μM BAP,1.1419 ± 0.213 g
same,Shoot length (mm) mean SE,[3]; 30 μM compound with 10 μM BAP,40.6 ± 4.831 mm
same,Shoot no. mean SE,[3]; 30 μM compound with 10 μM BAP,3.8 ± 0.593
same,STN [%] (shoot-tip necrosis),[4]; 5 μM in MS medium,53.3 ± 0.24d %
same,Shoot length [cm],[4]; 5 μM in MS medium,1.36 ± 0.27bc cm
same,Shoots [explant^−1] […],[4]; 5 μM in MS medium,1.0 ± 0.0a explant^−1
same,STN [%] (shoot-tip necrosis),[4]; 10 μM in MS medium,40.0 ± 0.20fg %
same,Shoot length [cm],[4]; 10 μM in MS medium,1.82 ± 0.17b cm
same,Shoots [explant^−1] […],[4]; 10 μM in MS medium,1.0 ± 0.0a explant^−1
same,STN [%] (shoot-tip necrosis),[4]; 20 μM in MS medium,22.6 ± 0.28hi %
same,Shoot length [cm],[4]; 20 μM in MS medium,3.30 ± 0.14a cm
same,Shoots [explant^−1] […],[4]; 20 μM in MS medium,1.0 ± 0.0a explant^−1
same,STN [%] (shoot-tip necrosis),[4]; 30 μM in MS medium,13.3 ± 0.24j %
same,Shoot length [cm],[4]; 30 μM in MS medium,3.00 ± 0.11a cm
same,Shoots [explant^−1] […],[4]; 30 μM in MS medium,1.0 ± 0.0a explant^−1
same,Fresh weight (g) mean SE,[5]; 5 μM compound with 10 μM BAP,0.249 ± 0.0594 g
same,Shoot length (mm) mean SE,[5]; 5 μM compound with 10 μM BAP,14.11 ± 1.670 mm
same,Shoot no. mean SE,[5]; 5 μM compound with 10 μM BAP,7.6 ± 2.10
same,Fresh weight (g) mean SE,[5]; 10 μM compound with 10 μM BAP,0.349 ± 0.1025 g
same,Shoot length (mm) mean SE,[5]; 10 μM compound with 10 μM BAP,18.89 ± 2.288 mm
same,Shoot no. mean SE,[5]; 10 μM compound with 10 μM BAP,10.6 ± 2.75
same,Fresh weight (g) mean SE,[5]; 20 μM compound with 10 μM BAP,0.563 ± 0.0729 g
same,Shoot length (mm) mean SE,[5]; 20 μM compound with 10 μM BAP,16.22 ± 1.730 mm
same,Shoot no. mean SE,[5]; 20 μM compound with 10 μM BAP,13.7 ± 2.06
same,Fresh weight (g) mean SE,[5]; 30 μM compound with 10 μM BAP,0.335 ± 0.0877 g
same,Shoot length (mm) mean SE,[5]; 30 μM compound with 10 μM BAP,18.33 ± 3.122 mm
same,Shoot no. mean SE,[5]; 30 μM compound with 10 μM BAP,11.6 ± 2.99
same,activity in killing Herpes simplex virus,Herpes simplex virus,No effect
same,Morphogenesis in vitro,[6]; 5 μM in MS medium,Green shoots
same,STN [%] (shoot-tip necrosis),[6]; 5 μM in MS medium,52.2 ± 0.89b %
same,Shoot length [cm],[6]; 5 μM in MS medium,1.42 ± 0.21bc cm
same,Shoots [explant^−1] […],[6]; 5 μM in MS medium,1.0 ± 0.00c explant^−1
same,Morphogenesis in vitro,[6]; 10 μM in MS medium,Green shoots
same,STN [%] (shoot-tip necrosis),[6]; 10 μM in MS medium,50.0 ± 0.75bc %
same,Shoot length [cm],[6]; 10 μM in MS medium,1.86 ± 0.14ab cm
same,Shoots [explant^−1] […],[6]; 10 μM in MS medium,1.0 ± 0.00c explant^−1
same,Morphogenesis in vitro,[6]; 20 μM in MS medium,Pale green shoots
same,STN [%] (shoot-tip necrosis),[6]; 20 μM in MS medium,45.5 ± 0.95d %
same,Shoot length [cm],[6]; 20 μM in MS medium,1.94 ± 0.09ab cm
same,Shoots [explant^−1] […],[6]; 20 μM in MS medium,1.8 ± 0.48bc explant^−1
same,Morphogenesis in vitro,[6]; 30 μM in MS medium,Pale green shoots
same,STN [%] (shoot-tip necrosis),[6]; 30 μM in MS medium,31.3 ± 1.12ef %
same,Shoot length [cm],[6]; 30 μM in MS medium,2.26 ± 0.22a cm
same,Shoots [explant^−1] […],[6]; 30 μM in MS medium,2.2 ± 0.32b explant^−1
same,activity in killing Vaccinia virus,Vaccinia virus,No effect

# Reference: patent US10550144B2, “6-aryl-9-glycosylpurines and use thereof” (UNIVERZITA PALACKEHO V OLOMOUCI, priority 2014, dated 2020)
